Patent US9409905B2, “Antibacterial compounds and methods for use” (PTC THERAPEUTICS, INC., priority 2011, dated 2016)
Values after ≈ are worked out from the molar mass of the structure shown.

Columns and labels:
A. baumannii MXX2240 = assay: Antibacterial activity, MIC, resistant strain (Table 4); type: cell-based; conditions: Acinetobacter baumannii, MXX2240; resistant A. baumannii MMX2240, multi-drug resistant clinical isolate; read-out: MIC, MMX2240
From the text: (§1) The antibacterial activity from a microbroth dilution method may be presented as the minimum inhibitory concentration (MIC in μg/mL). The MIC value is the lowest concentration of drug which prevents macroscopically visible growth under test conditions.
(§2) Antibacterial activity of test compounds against the Gram-negative Acinetobacter baumannii (A. baumannii) BAA747 and Klebsiella pneumoniae (K. pneumoniae) 35657 bacterium and the resistant A. baumannii MXX2240 and K. pneumoniae MXX1232 strains are shown in Table 4. The MMX strains are multi-drug resistant clinical isolates.

K. pneumoniae MXX1232 = assay: as above; type: cell-based; conditions: Klebsiella pneumoniae, MXX1232; resistant K. pneumoniae MMX1232, multi-drug resistant clinical isolate; read-out: MIC, MMX1232
From the text: as §1, §2

[1] = test system: Klebsiella pneumoniae (K. pneumoniae) 35657; assay: Antibacterial activity, MIC (Table 4); type: cell-based; conditions: K. pneumoniae 35657, read-out: MIC, 35657
From the text: as §1, §2

[2] = test system: Acinetobacter baumannii (A. baumannii) BAA747; assay: Antibacterial activity, MIC (Table 4); type: cell-based; conditions: A. baumannii BAA747, read-out: MIC, BAA747
From the text: as §1, §2

[3] = test system: Staphylococcus aureus (S. aureus) 29213; assay: Antibacterial activity, microbroth dilution MIC (Table 1); type: cell-based; conditions: microbroth dilution, Gram-positive S. aureus 29213, read-out: MIC, 29213
Method in brief: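 Microbroth dilution was used. MIC, in μg/mL, is the lowest drug concentration preventing macroscopically visible growth under the test conditions.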

[4] = test system: Escherichia coli (E. coli) BAS849; assay: as above; type: cell-based; conditions: microbroth dilution, super sensitive Gram-negative E. coli BAS849, read-out: MIC, BAS849
Method in brief: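 Using broth microdilution, MIC endpoints (μg/mL) mark where visible growth no longer appears; the panel spans sensitive and control Gram-negative strains plus a Gram-positive strain.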

E. coli LZ3111 = assay: Antibacterial activity, MIC, quinolone resistant strain (Table 2); type: cell-based; conditions: Escherichia coli, LZ3111, read-out: MIC LZ3111
Method in brief: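 Growth inhibition assessed by serial drug dilution in broth; endpoint was absence of macroscopically visible growth, reported as MIC, μg/mL.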

E. coli 25922 = assay: Antibacterial activity, microbroth dilution MIC (Table 1); type: cell-based, Escherichia coli; conditions: Escherichia coli; microbroth dilution; control Gram-negative E. coli 25922 strain; read-out: MIC, 25922
Method in brief: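 Lowest concentration stopping macroscopically visible growth under test conditions, by broth microdilution, defines the MIC (μg/mL).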

[5] = test system: Pseudomonas aeruginosa (P. aeruginosa) 27853; assay: Antibacterial activity, MIC (Table 5); type: cell-based; conditions: P. aeruginosa 27853, read-out: MIC, 27853
From the text: as §1
Antibacterial activity of test compounds against the Gram-negative bacterium Pseudomonas aeruginosa (P. aeruginosa) 27853 is shown in Table 5.

| SMILES | MIC (A. baumannii MXX2240) | MIC (K. pneumoniae MXX1232) | MIC [1] | MIC [2] | MIC [3] | MIC [4] | MIC (E. coli LZ3111) | MIC (E. coli 25922) | MIC [5] |
| --- | --- | --- | --- | --- | --- | --- | --- | --- | --- |
| CCc1c(-c2ccc3c(c2)cc2n3C[C@H](CN)[C@@H]2NC)[nH]c(=O)c(C(=O)O)c1O.Cl.Cl (relative stereo) [Cpd 421, 6-(cis-2-(aminomethyl)-1-(methylamino)-2,3-dihydro-1H-pyrrolo[1,2-a]indol-7-yl)-5-ethyl-4-hydroxy-2-oxo-1,2-dihydropyridine-3-carboxylic acid bis-hydrochloride] | 12.5 to 150 µg/mL | 12.5 to 150 µg/mL | 12.5 to 150 µg/mL | 12.5 to 150 µg/mL | 12.5 to 150 µg/mL | 1 to 3.5 µg/mL | 12.5 to 150 µg/mL | 3.5 to 12.5 µg/mL | 12.5 to 150 µg/mL |
| CCc1c(-c2ccc3c(c2)cc2n3C[C@H](N)C[C@H]2NC)[nH]c(=O)c(C(=O)O)c1O.Cl.Cl (relative stereo) [Cpd 422, 6-(trans-7-amino-9-(methylamino)-6,7,8,9-tetrahydropyrido[1,2-a]indol-2-yl)-5-ethyl-4-hydroxy-2-oxo-1,2-dihydropyridine-3-carboxylic acid bis-hydrochloride] | 12.5 to 150 µg/mL | 12.5 to 150 µg/mL | 3.5 to 12.5 µg/mL | 12.5 to 150 µg/mL | 12.5 to 150 µg/mL | 1 to 3.5 µg/mL | 12.5 to 150 µg/mL | 12.5 to 150 µg/mL | 12.5 to 150 µg/mL |
| CCc1cc(C(=O)O)c(=O)[nH]c1-c1ccc2c(c1)cc(CN1CCC(O)C1)n2C (centres unmarked) [Cpd 125, 5-ethyl-6-(2-((3-hydroxypyrrolidin-1-yl)methyl)-1-methyl-1H-indol-5-yl)-2-oxo-1,2-dihydropyridine-3-carboxylic acid] |  |  | < 1 µg/mL | 12.5 to 150 µg/mL (≈ 31.6 to 379 µM) | 12.5 to 150 µg/mL (≈ 31.6 to 379 µM) | < 1 µg/mL | 12.5 to 150 µg/mL (≈ 31.6 to 379 µM) | 1 to 3.5 µg/mL (≈ 2.53 to 8.85 µM) | 12.5 to 150 µg/mL (≈ 31.6 to 379 µM) |
| CCc1cc(C(=O)O)c(=O)[nH]c1-c1ccc2c(c1)cc(CN1CCCC1c1ccccc1)n2C (centres unmarked) [Cpd 131, 5-ethyl-6-(1-methyl-2-((2-phenylpyrrolidin-1-yl)methyl)-1H-indol-5-yl)-2-oxo-1,2-dihydropyridine-3-carboxylic acid] |  |  | 12.5 to 150 µg/mL (≈ 27.4 to 329 µM) | 3.5 to 12.5 µg/mL (≈ 7.68 to 27.4 µM) | 1 to 3.5 µg/mL (≈ 2.2 to 7.68 µM) | < 1 µg/mL | 12.5 to 150 µg/mL (≈ 27.4 to 329 µM) | 1 to 3.5 µg/mL (≈ 2.2 to 7.68 µM) | 12.5 to 150 µg/mL (≈ 27.4 to 329 µM) |
| CCc1cc(C(=O)O)c(=O)[nH]c1-c1ccc2c(c1)cc1n2CCC1N1CCOCC1 (centres unmarked) [Cpd 155, 5-ethyl-6-(1-morpholino-2,3-dihydro-1H-pyrrolo[1,2-a]indol-7-yl)-2-oxo-1,2-dihydropyridine-3-carboxylic acid] |  |  | 3.5 to 12.5 µg/mL (≈ 8.59 to 30.7 µM) | 12.5 to 150 µg/mL (≈ 30.7 to 368 µM) | 12.5 to 150 µg/mL (≈ 30.7 to 368 µM) | < 1 µg/mL | 12.5 to 150 µg/mL (≈ 30.7 to 368 µM) | 3.5 to 12.5 µg/mL (≈ 8.59 to 30.7 µM) | 12.5 to 150 µg/mL (≈ 30.7 to 368 µM) |
| CCc1cc(C(=O)O)c(=O)[nH]c1-c1ccc2c(c1)cc(CCN1CCOCC1)n2C [Cpd 162, 5-ethyl-6-(1-methyl-2-(2-morpholinoethyl)-1H-indol-5-yl)-2-oxo-1,2-dihydropyridine-3-carboxylic acid] |  |  | 1 to 3.5 µg/mL (≈ 2.44 to 8.55 µM) | 3.5 to 12.5 µg/mL (≈ 8.55 to 30.5 µM) | 12.5 to 150 µg/mL (≈ 30.5 to 366 µM) | < 1 µg/mL | 12.5 to 150 µg/mL (≈ 30.5 to 366 µM) | 1 to 3.5 µg/mL (≈ 2.44 to 8.55 µM) | 12.5 to 150 µg/mL (≈ 30.5 to 366 µM) |
| CCc1c(-c2ccc3c(c2)cc(CN2C[C@@H]4[C@H](C2)[C@H]4NC)n3C)[nH]c(=O)c(C(=O)O)c1O [Cpd 208, 5-ethyl-4-hydroxy-6-(1-methyl-2-(((1R,5S,6s)-6-(methylamino)-3-azabicyclo[3.1.0]hexan-3-yl)methyl)-1H-indol-5-yl)-2-oxo-1,2-dihydropyridine-3-carboxylic acid] | 12.5 to 150 µg/mL (≈ 28.6 to 344 µM) | 12.5 to 150 µg/mL (≈ 28.6 to 344 µM) |  |  | 3.5 to 12.5 µg/mL (≈ 8.02 to 28.6 µM) | < 1 µg/mL | 3.5 to 12.5 µg/mL (≈ 8.02 to 28.6 µM) | < 1 µg/mL |  |
| CCc1c(-c2ccc3c(c2)cc(CNCc2ccccc2)n3C)[nH]c(=O)c(C(=O)O)c1O.Cl [Cpd 214, 6-(2-((benzylamino)methyl)-1-methyl-1H-indol-5-yl)-5-ethyl-4-hydroxy-2-oxo-1,2-dihydropyridine-3-carboxylic acid hydrochloride] |  | 12.5 to 150 µg/mL | 12.5 to 150 µg/mL |  | 1 to 3.5 µg/mL | < 1 µg/mL | 12.5 to 150 µg/mL | < 1 µg/mL |  |
| CCc1c(-c2ccc3c(c2)cc(CNCc2cccnc2)n3C)[nH]c(=O)c(C(=O)O)c1O.Cl [Cpd 220, 5-ethyl-4-hydroxy-6-(1-methyl-2-((pyridin-3-ylmethylamino)methyl)-1H-indol-5-yl)-2-oxo-1,2-dihydropyridine-3-carboxylic acid hydrochloride] |  | 12.5 to 150 µg/mL | 3.5 to 12.5 µg/mL |  | 1 to 3.5 µg/mL | < 1 µg/mL | 12.5 to 150 µg/mL | < 1 µg/mL |  |
| CCc1c(-c2ccc3c(c2)cc(CNCc2ccncc2)n3C)[nH]c(=O)c(C(=O)O)c1O.Cl [Cpd 221, 5-ethyl-4-hydroxy-6-(1-methyl-2-((pyridin-4-ylmethylamino)methyl)-1H-indol-5-yl)-2-oxo-1,2-dihydropyridine-3-carboxylic acid hydrochloride] |  | 12.5 to 150 µg/mL | 1 to 3.5 µg/mL |  | 1 to 3.5 µg/mL | < 1 µg/mL | 12.5 to 150 µg/mL | 1 to 3.5 µg/mL |  |
| CCc1c(-c2ccc3c(c2)cc(CN2CCC(O)CC2)n3C)[nH]c(=O)c(C(=O)O)c1O [Cpd 254, 5-ethyl-4-hydroxy-6-(2-((4-hydroxypiperidin-1-yl)methyl)-1-methyl-1H-indol-5-yl)-2-oxo-1,2-dihydropyridine-3-carboxylic acid] |  | 12.5 to 150 µg/mL (≈ 29.4 to 353 µM) | 3.5 to 12.5 µg/mL (≈ 8.23 to 29.4 µM) |  | 3.5 to 12.5 µg/mL (≈ 8.23 to 29.4 µM) | < 1 µg/mL | 12.5 to 150 µg/mL (≈ 29.4 to 353 µM) | 1 to 3.5 µg/mL (≈ 2.35 to 8.23 µM) |  |
| CCc1c(-c2ccc3c(c2)cc(C2CCNC2)n3C)[nH]c(=O)c(C(=O)O)c1O (centres unmarked) [Cpd 306, 5-ethyl-4-hydroxy-6-(1-methyl-2-(pyrrolidin-3-yl)-1H-indol-5-yl)-2-oxo-1,2-dihydropyridine-3-carboxylic acid] |  |  | 3.5 to 12.5 µg/mL (≈ 9.18 to 32.8 µM) | 12.5 to 150 µg/mL (≈ 32.8 to 393 µM) | 12.5 to 150 µg/mL (≈ 32.8 to 393 µM) | 1 to 3.5 µg/mL (≈ 2.62 to 9.18 µM) | 3.5 to 12.5 µg/mL (≈ 9.18 to 32.8 µM) | 3.5 to 12.5 µg/mL (≈ 9.18 to 32.8 µM) | 12.5 to 150 µg/mL (≈ 32.8 to 393 µM) |
| CCc1c(-c2ccc3c(c2)c(C#N)c(N2CCCC2)n3C)[nH]c(=O)c(C(=O)O)c1O [Cpd 360, 6-(3-cyano-1-methyl-2-(pyrrolidin-1-yl)-1H-indol-5-yl)-5-ethyl-4-hydroxy-2-oxo-1,2-dihydropyridine-3-carboxylic acid] |  |  |  |  | 1 to 3.5 µg/mL (≈ 2.46 to 8.61 µM) | 3.5 to 12.5 µg/mL (≈ 8.61 to 30.8 µM) | 12.5 to 150 µg/mL (≈ 30.8 to 369 µM) | 12.5 to 150 µg/mL (≈ 30.8 to 369 µM) |  |
| CCc1c(-c2ccc3c(c2)c(C#N)c(N(C)C)n3C)[nH]c(=O)c(C(=O)O)c1O [Cpd 361, 6-(3-cyano-2-(dimethylamino)-1-methyl-1H-indol-5-yl)-5-ethyl-4-hydroxy-2-oxo-1,2-dihydropyridine-3-carboxylic acid] |  |  |  |  | 3.5 to 12.5 µg/mL (≈ 9.2 to 32.9 µM) | 1 to 3.5 µg/mL (≈ 2.63 to 9.2 µM) | 12.5 to 150 µg/mL (≈ 32.9 to 394 µM) | 12.5 to 150 µg/mL (≈ 32.9 to 394 µM) |  |
| CCc1c(-c2ccc3c(c2)c(Cl)cn3C)[nH]c(=O)c(C(=O)O)c1O [Cpd 363, 6-(3-chloro-1-methyl-1H-indol-5-yl)-5-ethyl-4-hydroxy-2-oxo-1,2-dihydropyridine-3-carboxylic acid] |  |  |  |  | 1 to 3.5 µg/mL (≈ 2.88 to 10.1 µM) | < 1 µg/mL | 1 to 3.5 µg/mL (≈ 2.88 to 10.1 µM) | 12.5 to 150 µg/mL (≈ 36 to 433 µM) |  |
